# According to US20080234233A1, “MEDICAMENT FOR TREATMENT OF NEURODEGENERATIVE DISEASES” (INSTITUTE OF MEDICINAL MOLECULAR DESIGN INC., priority 2002, published 2008):
# Tested on: NF-κ B activation
# Assay: Inhibitory activity of NF-κB activation, luciferase reporter assay under TNF-α stimulation in HepG2
# Assay type: cell-based, human
# Conditions: HepG2, TNF-α 40 ng/ml, 4 hours; for inhibition at 1 µg/mL / inhibition at 10 µg/mL: Homo sapiens, read-out: Inhibitory rate against NF-κB activation (%)
# Protocol: Measurement of Inhibitory Activity of NF-κB activation
# Using a transfection reagent (Effectene; QIAGEN), the human hepatoma cell strain HepG2 was transfected with a plasmid (pNF κ B-Luc Reporter Plasmid; […]) integrated with an oligonucleotide having five tandem copies of NF-κ B binding sequences([…]) on a upstream region of firefly luciferase gene(Luc) according to the QIAGEN's protocol, and the cells were incubated for 6 to 24 hours. After addition of TNF-α (40 ng/ml) in the presence or absence of a test compound, the cells were incubated for 4 hours, and intracellular luciferase activity was measured by using PicaGene LT (TOYO INK MFG Co., Ltd.) and a chemical luminescence measurement apparatus ([…]luor Plus; TECAN). The inhibitory ratio was measured as a ratio relative to the value of the luciferase activity in the absence of the test compound.
Compound,Inhibitory rate against NF-κB activation (%) (Drug concentration at 1 μg/mL),Inhibitory rate against NF-κB activation (%) (Drug concentration at 10 μg/mL),inhibition at 1 µg/mL (Drug concentration at 1 μg/mL) [%],inhibition at 10 µg/mL (Drug concentration at 10 μg/mL) [%]
Cc1ccc(C(F)(F)F)cc1NC(=O)c1cc(Cl)ccc1O [compound 92],93.8,97.9,–,–
CCOC(=O)c1sc(NC(=O)c2cc(-c3ccc(F)cc3F)ccc2O)nc1-c1ccccc1 [compound 227],31.8,90.3,–,–
COc1ccc(C(F)(F)F)cc1NC(=O)c1cc(Cl)ccc1O [compound 95],91.8,98.5,–,–
"COC(=O)c1cc(NC(=O)c2cc(Cl)ccc2O)cc(C(F)(F)F)c1 [compound 108, 5-chloro-2-hydroxy-N-[3-methoxycarbonyl-5-(trifluoromethyl)phenyl]benzamide]",–,–,41.5,88.4
"O=C(Nc1cc(C(F)(F)F)cc(C(F)(F)F)c1)c1ccc(-c2ccccc2)cc1O [compound 262, N-[3,5-Bis(trifluoromethyl)phenyl]-2-hydroxy-4-phenylbenzamide]",–,–,> 99.9,–
O=C(Nc1nnc(C(F)(F)F)s1)c1cc(Br)ccc1O [compound 238],26.1,90.3,–,–
COc1ccc(C(C)(C)c2ccccc2)cc1NC(=O)c1cc(Cl)ccc1O [compound 173],86.4,98.3,–,–
"O=C(Nc1nc(-c2ccccc2)c(C(=O)c2ccccc2)s1)c1cc(Br)ccc1O [compound 215, 5-Bromo-N-(5-benzoyl-4-phenylthiazol-2-yl)-2-hydroxybenzamide]",–,–,90.7,97.3
O=C(Nc1cc(C(F)(F)F)ccc1Cl)c1cc(Cl)cnc1O [compound 119],85.4,86.9,–,–
COc1ccc(C(C)(C)C)cc1NC(=O)c1cc(C)ccc1O [compound 149],37.4,87.1,–,–
"CN(C)C(=O)c1ccc(O)c(C(=O)Nc2cc(C(F)(F)F)cc(C(F)(F)F)c2)c1 [compound 38, N^3-[3,5-bis(trifluoromethyl)phenyl]-4-hydroxy-N^1,N^1-dimethylisophthalamide]",–,–,16,87.1
"COC(=O)C(C#N)=Cc1ccc(O)c(C(=O)Nc2cc(C(F)(F)F)cc(C(F)(F)F)c2)c1 [compound 17, 3-({N-[3,5-Bis(trifluoromethyl)phenyl]carbamoyl}-4-hydroxyphenyl)-2-cyanoacrylic acid methyl ester]",74.9,99.1,–,–
COc1ccc(C(=O)Nc2cc(C(F)(F)F)cc(C(F)(F)F)c2)c(O)c1 [compound 65],83.3,89.8,–,–

# The next lines start with results.
Inhibitory rate against NF-κB activation (%) (Drug concentration at 1 μg/mL),Inhibitory rate against NF-κB activation (%) (Drug concentration at 10 μg/mL),Compound,inhibition at 1 µg/mL (Drug concentration at 1 μg/mL) [%],inhibition at 10 µg/mL (Drug concentration at 10 μg/mL) [%]
92.3,98.3,O=C(Nc1cc(C(F)(F)F)cc(C(F)(F)F)c1)c1cc(CCc2ccccc2)ccc1O [compound 24],–,–
87.6,96.5,CCOC(=O)c1sc(NC(=O)c2cc(Br)ccc2O)nc1C(F)(F)F [compound 224],–,–
82.4,97.9,COc1ccc(-c2ccccc2)cc1NC(=O)c1cc(Cl)ccc1O [compound 141],–,–
–,78.8,O=C(Nc1nc(-c2ccccc2)cs1)c1cc(Br)ccc1O [compound 208],–,–
95.0,97.7,CC(=O)Oc1ccc(Cl)cc1C(=O)Nc1nc(C(C)(C)C)c(C(=O)C(C)(C)C)s1 [compound 200],–,–
28.6,–,Cc1ccc(C(=O)c2ccccc2)c(NC(=O)c2cc(Cl)ccc2O)c1 [compound 267],–,–
96.7,97.4,CC(=O)Oc1ccc(Cl)cc1C(=O)Nc1cc(C(F)(F)F)ccc1Cl [compound 89],–,–
